Residues, ends and D or L forms follow the SMILES beside them.
B1: EMAP-II: recombinant single chain polypeptide which inhibits tumor growth and has anti-angiogenic activity (protein, UniProt Q12904 147-312, looked up)
Endothelial …: SKPIDVSRLDLRIGCIITARKHPDADSLYVEEVDVGEIAPRTVVSGLVNHVPLEQMQNRMVILLCNLKPAKMRGVLSQAMVMCASSPEKIEILAPPNGSVPGDRITFDAFPGEPDKELNPKKKIWEQIQPDLHTNDECVATYKGVPFEVKGKGVCRAQTMSNSGIK
modifications: Endothelial monocyte-activating polypeptide 2

Tests used:
[1] = tested on: VEGF; experiment: VEGF ELISA of tumor extracts after PDT; assay type: in vivo, mouse; details: PDT plus 2 doses of agent versus PDT alone; tumors collected 24 hr after PDT
Method: Tumor bearing mice received either no treatment (Control), photodynamic therapy alone, or photodynamic therapy plus 2 injections of either EMAP-II or IM862 (1 hr prior to photodynamic therapy and 23 hr after photodynamic therapy). Tumor samples were collected 24 hr after PDT and assayed for VEGF expression using a commercial ELISA assay kit. Each group represents the mean ± SE of 6 individual tumor samples.
(§1) In-vivo photodynamic therapy tumor treatments were performed as previously reported on tumors measuring 6-7 mm in diameter (17). Briefly, photodynamic therapy procedures included an i.v. injection of PH (5 mg/kg) followed 24 h later with non-thermal laser tumor irradiation using an argon pumped dye laser emitting red light at 630 nm. A light dose rate of 75 mW/cm^2 and a total light dose of 200 J/cm^2 were used for all in-vivo PDT treatments. Following treatment, tumors were measured 3 times per week. Cures were defined as being disease free for at least 40 days following photodynamic therapy (17). Anti-angiogenic treatment was performed using either EMAP-II or IM862. […]
A Quantikine M mouse VEGF ELISA kit (R&D Systems, Minneapolis, Minn.) was used to quantify VEGF levels in cell culture media as well as in tumor extracts from control and treated mice. […]
The effects of the anti-angiogenic derivatives on photodynamic therapy induced VEGF levels were analyzed in the treated tumors. […]

[2] = tested on: VEGF; details: preclinical studies; cited from earlier work
[3] = tested on: BA mammary carcinomas; experiment: In-vivo PDT tumor treatment, tumor cures; design: species or system C3H/HeJ mice; details: for tumor cures or tumor regression / tumor growth parameters: anti-angiogenic treatment alone, daily IP for 10 days, no PDT; for tumor cures: single PDT (PH 5 mg/kg, 200 J/cm^2) plus daily IP injections for 10 days (EMAP-II 50 μg/kg, IM862 25 mg/kg), disease free at least 40 days
Method: BA mouse mammary carcinoma cells (originally obtained from the NIH tumor bank) were used in all in-vitro and in-vivo experiments (17). Cells were grown as a monolayer in RPMI 1640 media supplemented with 10% fetal calf serum (FCS) and antibiotics. The plating efficiency for the BA cells ranged from 40-60%. Subcutaneous BA mammary carcinomas were generated by trocar injection of 1-mm^3 pieces of tumor to the hind right flank of 8-12 week old female C3H/HeJ mice (17).
In-vivo photodynamic therapy tumor treatments were performed as previously reported on tumors measuring 6-7 mm in diameter (17). Briefly, photodynamic therapy procedures included an i.v. injection of PH (5 mg/kg) followed 24 h later with non-thermal laser tumor irradiation using an argon pumped dye laser emitting red light at 630 nm. A light dose rate of 75 mW/cm^2 and a total light dose of 200 J/cm^2 were used for all in-vivo PDT treatments. Following treatment, tumors were measured 3 times per week. Cures were defined as being disease free for at least 40 days following photodynamic therapy (17). Anti-angiogenic treatment was performed using either EMAP-II or IM862. Each compound was administered as daily IP injections for 10 consecutive days starting 1 h prior to photodynamic therapy light treatment. Individual IM862 doses were 25 mg/kg and individual EMAP-II doses were 50 μg/kg. Tumor tissue hypoxia was induced in selected experiments by clamping lesions for 45 minutes. Statistical analysis was performed using the X^2 test for evaluation of tumor cure rates.
A photodynamic therapy procedure, which produced a moderate cure rate alone, was used to measure positive or negative changes in tumor response when a single photodynamic therapy treatment was combined with daily injections of EMAP-II or IM862 for 10 days (17).

[4] = tested on: AIDS associated Kaposi's sarcoma; details: intranasal administration; reference 16; cited from earlier work
[5] = tested on: xenograft models; details: in vivo; cited from earlier work
[6] = tested on: angiogenesis; details: preclinical studies; cited from earlier work
[7] = in vivo; cited from earlier work
[8] = tested on: tumor cells; details: cited from earlier work
[9] = tested on: VEGF; experiment: VEGF ELISA of culture media of BA mammary carcinoma cells; assay type: cell-based, mouse; details: in-vitro PDT, PH 25 μg/ml, 210 J/m^2, measured 24 hr after treatment
[10] = tested on: HIF-1α; experiment: Western immunoblot of HIF-1α in treated tumors; assay type: in vivo, C3H mice
Method: (§2) In FIG. 1A, tumors were collected immediately following treatment and evaluated for HIF-1α expression by Western immunoblot analysis. HIF-1α was not detectable in control tumors measuring 6-7 mm in diameter. […] In FIG. 1B, separate tumors were collected 24 hr after photodynamic therapy or clamping (45 min) and assayed for VEGF expression by Western immunoblot analysis. Expression of actin was used to monitor protein loading.
as §1
(§3) Tumors were collected at various times after treatment, homogenized with a polytron in 1X reporter lysis buffer (Promega, Wis.) and evaluated for protein expression as described previously (18). […]

[11] = tested on: VEGF; experiment: Western immunoblot of VEGF in treated tumors; design: species or system C3H mice; details: tumor lysates collected 24 hours after in-vivo PDT
Method: as §2, §1, §3

[12] = in vivo; cited from earlier work; remark: listed apart in the source
[13] = tested on: tumor growth; details: reference 15; cited from earlier work
[14] = tested on: growing capillary endothelial cells; details: time and dose dependent; reference 15; cited from earlier work
[15] = tested on: vessel ingrowth; details: experimental angiogenesis models and primary tumors; cited from earlier work

Molecule	VEGF levels in PDT treated tumors (ELISA) [1]	VEGF production in monocytic lineage cells [2]	tumor cures or tumor regression [3]	tumor growth parameters [3]	tumor cures [3] [%]	antitumor activity in patients [4]	tumor growth in xenograft models [5]	angiogenesis in chorioallantoic membrane assays [6]	safety and tolerability [7]	direct cytotoxic effect on tumor cells [8]	cure rate ([3]; photodynamic therapy alone (PH 5 mg/kg i.v., 630 nm, 200 J/cm^2), cure = disease free for at least 40 days) [%]	VEGF levels in culture media [9]	HIF-1α expression (Western) ([10]; PDT (PH 5 mg/kg; 200 J/cm^2), tumors collected immediately following treatment)	time after photodynamic therapy at which HIF-1α expression is observed ([10]; PDT of BA tumors in C3H mice) [min]	VEGF expression within treated lesions (Western) [11]	toxicity in normal organs [12]	tumor growth [13]	apoptosis in growing capillary endothelial cells [14]	vessel ingrowth [15]
N[C@@H](CCC(=O)O)C(=O)N[C@@H](Cc1c[nH]c2ccccc12)C(=O)O [IM862, L-glutamyl-L-tryptophan] (H-Glu-Trp-OH)	decrease in VEGF levels	inhibits VEGF production	did not produce any tumor cures or tumor regression	only slightly modified tumor growth parameters	78	exhibits antitumor activity	inhibits tumor growth	inhibits angiogenesis	safe and well tolerated	no direct cytotoxic effect									
Photofrin porfimer sodium											39	modestly increase in VEGF levels	induced HIF-1α expression	≤ 5	induced significant increases in VEGF expression				
B1	statistically significant decrease		did not produce any tumor cures or tumor regression	only slightly modified tumor growth parameters	89											does not induce toxicity	inhibits tumor growth	induces apoptosis	prevents vessel ingrowth
